Experimental data: patent US12275685B2, “Oligo-benzamide analogs and their use in cancer treatment” (Board of Regents, The University of Texas System, priority 2018, dated 2025)

Key:
[1] = test system: triple-negative breast cancer cells (TNBC); test: Growth inhibition of TNBC cells; format: cell-based
From the text: FIGS. 10A & 10B show effects of TK208 against cancer cells.
TNBC is difficult to be treated and currently there are no good drugs available in the market.
In addition, another tris-benzmaide compound TK208 was synthesized and tested against breast cancer and ovarian cancer cell lines (FIGS. 10-15). […] These compounds (e.g., TK41, TK208, TK308 (FIG. 21), TK309 (FIG. 22), TK314, TK315) are extremely potent compounds that inhibit tumor growth and kill breast and ovarian cancer cells and as such, they are superb therapeutic candidates for such diseases.

primary TNBC tumors = test: Ex vivo patient derived explant (PDE) cultures of TNBC; format: cell-based, human
Protocol: FIGS. 38A-E: LIPA is a viable molecular target in TNBC. (FIG. 38A) Kaplan-Meier curves show the correlation between expression levels of LAL with survival outcomes using a TCGA dataset with numerical tabulation below. (FIGS. 38B-D) Following surgical extirpation, primary TNBC tumors were cultured ex vivo either with vehicle or 1 μM ERX-41, as shown by the schematic (FIG. 38B). The effect on proliferation index (ki67) (FIG. 38C) and apoptosis markers (cleaved caspase 3) (FIG. 38D) is graphed. Representative immunohistochemical images of the effect of ERX-41 on ki67, cleaved caspase 3 and UPR genes shown (FIG. 38E).
ERX-41 has activity on human TNBC tumors. To ascertain that ERX-41 would have activity against primary TNBC tumors, the inventors leveraged their prior significant experience with the ex vivo patient derived explant (PDE) cultures […]. The PDE cultures, maintains the native tissue architecture and better recapitulates the heterogeneity of human TNBC in a laboratory setting.

LIPA = target: T1, LIPA (Homo sapiens, UniProt P38571); test: Biotinylated ERX-41 pulldown; format: binding; settings: WT-LIPA and H274Y MT-LIPA, not DLXXLL or L242P MT-LIPA
T1 construct: expressed in transfected cells; host or cells: SUM-159 cells with LIPA KO, reconstituted with LIPA plasmid constructs
T1 sequence (P38571 22-399): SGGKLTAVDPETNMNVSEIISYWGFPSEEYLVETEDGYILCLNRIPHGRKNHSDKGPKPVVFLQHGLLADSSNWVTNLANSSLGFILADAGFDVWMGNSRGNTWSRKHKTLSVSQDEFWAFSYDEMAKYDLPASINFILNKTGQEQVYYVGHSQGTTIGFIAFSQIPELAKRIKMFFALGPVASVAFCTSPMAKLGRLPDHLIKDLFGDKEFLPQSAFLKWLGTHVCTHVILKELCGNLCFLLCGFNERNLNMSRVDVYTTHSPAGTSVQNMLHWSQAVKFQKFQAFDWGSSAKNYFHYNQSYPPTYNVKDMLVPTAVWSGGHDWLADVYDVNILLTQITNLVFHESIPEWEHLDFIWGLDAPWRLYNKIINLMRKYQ
From the text: FIGS. 39A-N: (FIGS. 39A-E) Predicted binding mode of ERX-41 (colored in green) on the human lysosomal acid lipase (LAL, PDB code: 6V7N, LXXLL (SEQ ID NO: 1) domain colored in orange). (FIG. 39F) PDB structure of LAL protein showing relative positions of the catalytic domain (with H274Y MT) and the LXXLL (SEQ ID NO: 1) domain (L242P MT). (FIG. 39G) Evaluation of the effect of ERX-41 and lalistat (known lipase inhibitor) on lipase activity of parental SUM-159 (WT) and SUM-159 cells with LIPA KO. (FIG. 39H) Evaluation of basal lipase activity in parental SUM-159 (WT), SUM-159 cells with LIPA KO (KO), SUM-159 cells with LIPA KO and with reconstitution of either WT LIPA (KO+WT), H274Y MT-LIPA (KO+H274Y), DLXXLL (SEQ ID NO: 2) MT-LIPA (KO+DLXXLL (SEQ ID NO: 2)) or L242P MT-LIPA (KO+L242P). Protein expression of LAL and control vinculin in these cells are shown below (FIG. 391) Cellular lysates from described SUM-159 cells were incubated with biotinylated ERX-11 or biotinylated ERX-41 and then subject to a streptavidin column. Elutants were then evaluated for LIPA pulldown by western blotting. (FIG. 39J) Dose response curve to increasing concentrations of ERX-41 in described SUM-159 cells. (FIGS. 39K-M) Effect of vehicle or 1 μM ERX-41 on induction of UPR genes at the protein level (FIG. 39K) or RNA level (FIGS. 39L-M). […]

CC(C)COc1cc(C(=O)Nc2ccc(C(=O)N[C@H]3CC[C@H](C)CC3)cc2OCC(C)C)ccc1NC(=O)c1ccc([N+](=O)[O-])c(OCCO)c1 [TK41]
IC50 [1]: < 100 nM
apoptosis (cleaved caspase 3 staining) (primary TNBC tumors; 1 μM ex vivo): increased apoptosis
proliferation (ki67 staining) (primary TNBC tumors; 1 μM ex vivo): decreased proliferation
UPR pathway markers by immunohistochemistry (primary TNBC tumors; within 24 h after treatment): enhanced pPERK, CHOP (protein product of DDIT3 gene) and peiF2a staining
interaction with LIPA (LIPA): direct interaction
